Laboratory results: US20250230147A1, “LACTAMS AS CBL-B INHIBITORS” (Genentech, Inc., priority 2021, published 2025)

Key:
Cbl-b = Cbl-b (Homo sapiens (Human), UniProt Q13191); assay: Cbl-b LCK Ub TR-FRET assay (Cbl-b Lck HTRF); type: biochemical
Method in brief: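 TR-FRET (340 nm excitation, 615/665 nm emission) read after adding HA-ubiquitin–UBE2D2 thioester, anti-HA-D2 and streptavidin-Eu. Beforehand, compounds incubated 60 min with biotinylated Cbl-b, then 90 min with His-LCK and ATP (1 mM in 2× mix); IC50 from 10 concentrations, DMSO high and no-LCK low controls.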

c-Cbl = c-Cbl (Homo sapiens (Human), UniProt P22681); assay: C-Cbl LCK Ub TR-FRET assay (c-cbl Lck HTRF); type: biochemical; conditions: for (fold-selectivity): C-cbl Lck HTRF IC50 relative to Cbl-b Lck HTRF IC50
Chain of c-Cbl (P22681 47-435): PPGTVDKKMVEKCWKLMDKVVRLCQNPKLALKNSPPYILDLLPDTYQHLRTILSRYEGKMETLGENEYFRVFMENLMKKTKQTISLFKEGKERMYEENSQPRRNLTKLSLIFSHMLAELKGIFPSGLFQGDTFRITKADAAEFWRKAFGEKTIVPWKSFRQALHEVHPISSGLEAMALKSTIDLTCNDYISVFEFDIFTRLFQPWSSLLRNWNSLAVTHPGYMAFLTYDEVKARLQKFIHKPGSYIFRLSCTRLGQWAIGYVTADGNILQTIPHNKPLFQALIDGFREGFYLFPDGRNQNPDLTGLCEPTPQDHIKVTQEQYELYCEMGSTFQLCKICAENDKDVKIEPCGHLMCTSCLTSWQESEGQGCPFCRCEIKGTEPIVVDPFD
Method in brief: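 Detection reagents added, brief spin, 20 min RT. IC50 fit normalized to no-LCK (low) and DMSO (high) controls.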

Chain of Cbl-b (Q13191 40-426): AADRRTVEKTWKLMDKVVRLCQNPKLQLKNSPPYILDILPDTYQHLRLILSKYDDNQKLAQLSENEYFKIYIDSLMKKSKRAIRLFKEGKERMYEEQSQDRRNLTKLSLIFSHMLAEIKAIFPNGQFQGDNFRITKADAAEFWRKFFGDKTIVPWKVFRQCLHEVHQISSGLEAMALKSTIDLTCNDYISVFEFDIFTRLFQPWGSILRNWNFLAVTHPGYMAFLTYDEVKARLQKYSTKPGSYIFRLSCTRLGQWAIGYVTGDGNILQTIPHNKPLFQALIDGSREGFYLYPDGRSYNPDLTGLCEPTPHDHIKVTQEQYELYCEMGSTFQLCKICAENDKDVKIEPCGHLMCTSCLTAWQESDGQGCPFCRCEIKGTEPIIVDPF

| IC50 (Cbl-b) [nM] | IC50 (c-Cbl) [nM] | (fold-selectivity) (c-Cbl) | SMILES |
| --- | --- | --- | --- |
| 16 | 14 | (0.91x) | CC(C)NCc1cc2c(c(C(F)(F)F)c1)CN(c1cccc(C3(Cc4nncn4C)CC(F)(F)C3)c1)C2=O [Compound 415, 2-(3-(3,3-difluoro-1-((4-methyl-4H-1,2,4-triazol-3-yl)methyl)cyclobutyl)phenyl)-6-((isopropylamino)methyl)-4-(trifluoromethyl)isoindolin-1-one] |
| 18 | 23 | (1.3x) | Cn1cnnc1CC1(c2cc(NCCc3ccncc3)nc(N3Cc4c(cc(CNC5(C)CCC5)cc4C(F)(F)F)C3=O)c2)CCC1 [Compound 321, 2-(4-(1-((4-methyl-4H-1,2,4-triazol-3-yl)methyl)cyclobutyl)-6-((2-(pyridin-4-yl)ethyl)amino)pyridin-2-yl)-6-(((1-methylcyclobutyl)amino)methyl)-4-(trifluoromethyl)isoindolin-1-one] |
| 20 | 17 | (0.86x) | Cn1cnnc1CC1(c2cc(OCc3ccccc3)nc(N3Cc4c(cc(CNC5(C)CCC5)cc4C(F)(F)F)C3=O)c2)CCC1 [Compound 360, 2-(6-(benzyloxy)-4-(1-((4-methyl-4H-1,2,4-triazol-3-yl)methyl)cyclobutyl)pyridin-2-yl)-6-(((1-methylcyclobutyl)amino)methyl)-4-(trifluoromethyl)isoindolin-1-one] |
| 49 | 67 | 1.4x | Cn1cnnc1[C@H](F)C1(c2cccc(N3Cc4c(cc(CC5CNC5)cc4C(F)(F)F)C3=O)c2)COC1 [Compound 57, (R)-6-(azetidin-3-ylmethyl)-2-(3-(3-(fluoro(4-methyl-4H-1,2,4-triazol-3-yl)methyl)oxetan-3-yl)phenyl)-4-(trifluoromethyl)isoindolin-1-one] |
| 220 | 210 | 0.94x | Cn1cnnc1CC1(c2cccc(N3Cc4c(cc(C5CNC5)cc4C(F)(F)F)C3=O)c2)COC1 [Compound 12, 6-(azetidin-3-yl)-2-(3-(3-((4-methyl-4H-1,2,4-triazol-3-yl)methyl)oxetan-3-yl)phenyl)-4-(trifluoromethyl)isoindolin-1-one] |
| 75 | 84 | 1.1x | CC(C)[C@H]1CNCCN1Cc1cc2c(c(C(F)(F)F)c1)CN(c1cccc(C3(Cc4nncn4C)CC(F)(F)C3)c1)C2=O [Compound 219, (S)-2-(3-(3,3-difluoro-1-((4-methyl-4H-1,2,4-triazol-3-yl)methyl)cyclobutyl)phenyl)-6-((2-isopropylpiperazin-1-yl)methyl)-4-(trifluoromethyl)isoindolin-1-one] |
| 160 | 370 | 2.3x | CC(C)C1(O)CN(Cc2cc3c(c(C(F)(F)F)c2)CN(c2cccc(C4([C@H](F)c5nncn5C)COC4)c2)C3=O)C1 [Compound 184, (S)-2-(3-(3-(fluoro(4-methyl-4H-1,2,4-triazol-3-yl)methyl)oxetan-3-yl)phenyl)-6-((3-hydroxy-3-isopropylazetidin-1-yl)methyl)-4-(trifluoromethyl)isoindolin-1-one] |

Further lines, the compound ahead of its results:

| SMILES | IC50 (Cbl-b) [nM] | IC50 (c-Cbl) [nM] | (fold-selectivity) (c-Cbl) |
| --- | --- | --- | --- |
| CC(C)[C@H]1CN(C)CCN1Cc1cc2c(c(C(F)(F)F)c1)CN(c1cccc(C3([C@H](F)c4nncn4C4CC4)COC3)c1)C2=O [Compound 487, 2-(3-(3-((S)-(4-cyclopropyl-4H-1,2,4-triazol-3-yl)fluoromethyl)oxetan-3-yl)phenyl)-6-(((S)-2-isopropyl-4-methylpiperazin-1-yl)methyl)-4-(trifluoromethyl)isoindolin-1-one] | 1800 | 2700 | (1.5x) |
| Cn1cnnc1[C@@H](F)[C@@](C)(F)c1cccc(N2Cc3c(cc(CN4CC(C)(F)C4)cc3C(F)(F)F)C2=O)c1 [Compound 32, 2-(3-((1 R,2S)-1,2-difluoro-1-(4-methyl-4H-1,2,4-triazol-3-yl)propan-2-yl)phenyl)-6-((3-fluoro-3-methylazetidin-1-yl)methyl)-4-(trifluoromethyl)isoindolin-1-one] | 4500 | 11000 | 2.5x |
| Cn1cnnc1CC1(c2cc(NCC(N)=O)nc(N3Cc4c(cccc4C(F)(F)F)C3=O)c2)COC1 [Compound 491, 2-((4-(3-((4-methyl-4H-1,2,4-triazol-3-yl)methyl)oxetan-3-yl)-6-(1-oxo-4-(trifluoromethyl)isoindolin-2-yl)pyridin-2-yl)amino)acetamide] | 8600 | 20000 | (2.3x) |
| Cn1cnnc1CC1(c2cc(NC34CCC(C3)C4)nc(N3Cc4c(cccc4C(F)(F)F)C3=O)c2)COC1 [Compound 493, 2-(6-(bicyclo[2.1.1]hexan-1-ylamino)-4-(3-((4-methyl-4H-1,2,4-triazol-3-yl)methyl)oxetan-3-yl)pyridin-2-yl)-4-(trifluoromethyl)isoindolin-1-one] | 630 | 4500 | (6.9x) |
| CC(=O)N1CCC(CNc2cc(C3(Cc4nncn4C)CCC3)cc(N3Cc4c(cc(CNC5(C)CCC5)cc4C(F)(F)F)C3=O)n2)CC1.Cl [Compound 329, 2-(6-(((1-acetylpiperidin-4-yl)methyl)amino)-4-(1-((4-methyl-4H-1,2,4-triazol-3-yl)methyl)cyclobutyl)pyridin-2-yl)-6-(((1-methylcyclobutyl)amino)methyl)-4-(trifluoromethyl)isoindolin-1-one hydrochloride] | 98 | 65 | (0.66x) |
| COC[C@@H]1CCCN1Cc1cc2c(c(C(F)(F)F)c1)CN(c1cccc(C3([C@@H](F)c4nncn4C)COC3)c1)C2=O [Compound 159, 2-(3-(3-((R)-fluoro(4-methyl-4H-1,2,4-triazol-3-yl)methyl)oxetan-3-yl)phenyl)-6-(((S)-2-(methoxymethyl)pyrrolidin-1-yl)methyl)-4-(trifluoromethyl)isoindolin-1-one] | 350 | 1200 | 3.4x |
| CC(C)[C@H]1CN(C)CCN1Cc1cc2c(c(C(F)(F)F)c1)CN(c1cccc(C3([C@@H](F)c4nncn4C(F)F)COC3)c1)C2=O [Compound 267, 2-(3-(3-((R)-(4-(difluoromethyl)-4H-1,2,4-triazol-3-yl)fluoromethyl)oxetan-3-yl)phenyl)-6-(((S)-2-isopropyl-4-methylpiperazin-1-yl)methyl)-4-(trifluoromethyl)isoindolin-1-one] | 17 | 17 | (1.0x) |
| CC(C)NCc1cc2c(c(C(F)(F)F)c1)CN(c1cccc(C3([C@H](F)c4nncn4C)CC(F)(F)C3)c1)C2=O [Compound 418, (S)-2-(3-(3,3-difluoro-1-(fluoro(4-methyl-4H-1,2,4-triazol-3-yl)methyl)cyclobutyl)phenyl)-6-((isopropylamino)methyl)-4-(trifluoromethyl)isoindolin-1-one] | 32 | 37 | (1.2x) |
| CCOc1cc(C2(Cc3nncn3C)COC2)cc(N2Cc3c(cc(CNC4(C)CCC4)cc3C(F)(F)F)C2=O)n1 [Compound 304, 2-(6-ethoxy-4-(3-((4-methyl-4H-1,2,4-triazol-3-yl)methyl)oxetan-3-yl)pyridin-2-yl)-6-(((1-methylcyclobutyl)amino)methyl)-4-(trifluoromethyl)isoindolin-1-one] | 11 | 7.9 | (0.73x) |
| Cn1cnnc1[C@@H](F)C1(c2cccc(N3Cc4c(cc(CN5CCC[C@H](CO)C5)cc4C(F)(F)F)C3=O)c2)COC1 [Compound 144, 2-(3-(3-((S)-fluoro(4-methyl-4H-1,2,4-triazol-3-yl)methyl)oxetan-3-yl)phenyl)-6-(((S)-3-(hydroxymethyl)piperidin-1-yl)methyl)-4-(trifluoromethyl)isoindolin-1-one] | 72 | 66 | 0.91x |
| CCCNCc1cc2c(c(C(F)(F)F)c1)CN(c1cccc(C3([C@H](F)c4nncn4C)CC(F)(F)C3)c1)C2=O [Compound 446, (S)-2-(3-(3,3-difluoro-1-(fluoro(4-methyl-4H-1,2,4-triazol-3-yl)methyl)cyclobutyl)phenyl)-6-((propylamino)methyl)-4-(trifluoromethyl)isoindolin-1-one] | 26 | 29 | (1.3x) |
| CC(C)CNCc1cc2c(c(C(F)(F)F)c1)CN(c1cccc(C3([C@@H](F)c4nncn4C)CC(F)(F)C3)c1)C2=O [Compound 451, (R)-2-(3-(3,3-difluoro-1-(fluoro(4-methyl-4H-1,2,4-triazol-3-yl)methyl)cyclobutyl)phenyl)-6-((isobutylamino)methyl)-4-(trifluoromethyl)isoindolin-1-one] | 15 | 10 | (0.71x) |
| CC[C@H]1CC[C@H](c2cc3c(c(C(F)(F)F)c2)CN(c2cccc(C4(Cc5nncn5C)CC(F)(F)C4)c2)C3=O)N1 [Compound 469, 2-(3-(3,3-difluoro-1-((4-methyl-4H-1,2,4-triazol-3-yl)methyl)cyclobutyl)phenyl)-6-((2R,5S)-5-ethylpyrrolidin-2-yl)-4-(trifluoromethyl)isoindolin-1-one] | 48 | 52 | (1.1x) |
| CC(C)[C@H]1CN(C2COC2)CCN1Cc1cc2c(c(C(F)(F)F)c1)CN(c1cccc(C3([C@H](F)c4nncn4C)COC3)c1)C2=O [Compound 199, 2-(3-(3-((S)-fluoro(4-methyl-4H-1,2,4-triazol-3-yl)methyl)oxetan-3-yl)phenyl)-6-(((S)-2-isopropyl-4-(oxetan-3-yl)piperazin-1-yl)methyl)-4-(trifluoromethyl)isoindolin-1-one] | 19 | 56 | 2.9x |
